Legend:
murine Hrnr = assay: In vitro siRNA-mediated hornerin knockdown in COCA cells (immunoblot); assay type: cell-based; details: COCA mouse keratinocytes, densitometry
Method: For in vitro siRNA-mediated hornerin knockdown, COCA cells and human keratinocytes were plated at a density of 0.1×10^6 cells/well in a six-well cluster plate. The cells were treated the following day with Scr siRNA or Hrnr siRNA (Invitrogen; siRNA sequences identical to those utilized in tumor studies) following an established protocol (see Rachow et al., 2013). Briefly, 100 μL of 10 μM siRNA and 12.5 μL of Lipofectamine 2000 (LF2000; Invitrogen) were added to separate 625 μL OptiMEM (Thermo Fisher Scientific) aliquots. After 5 minutes at RT, the solutions were mixed and incubated for an additional 30 minutes, upon which 5 ml of keratinocyte media were added. The cells were incubated overnight in 3 ml of the siRNA/LF2000/media mixture, replenished the following morning with media containing 2 mM CaCl2) to induce differentiation, and lysed in RIPA buffer 8 hours post-media change. Lysate preparations were subjected to immunoblot using the primary antibodies anti-human hornerin (Abcam; 1:1000), anti-mouse hornerin (Santa Cruz Biotechnology, Dallas, TX, USA, sc164605; 1:200), or anti-beta actin (Cell Signaling; 1:4000), and respective secondary antibodies anti-goat HRP (R&D Systems; 1:10,000), and anti-mouse HRP (R&D Systems; 1:10,000). Uncropped hornerin immunoblots are represented in FIGS. 6A and 6B.

L3.6pl tumors = assay: Ki67 and cleaved caspase 3 immunofluorescence in tumor sections; assay type: in vivo, mouse; details: day 15 tumor sections
Method: Vessel parameters were measured using RAVE software (Seaman et al., 2011). For detection of proliferation and apoptosis, the sections were incubated with the primary antibodies anti-Ki67 (Abcam, ab15580; 1:200) or anti-cleaved caspase 3 (Cell Signaling, 9661; 1:200), respectively, overnight at 4° C. followed by incubation with anti-rabbit AF594 (Abcam, 150080; 1:200).

L3.6pl PDAC cells = assay: Subcutaneous L3.6pl PDAC xenograft tumor volume; assay type: in vivo, mouse
Method: A tumor sample size of four was determined by power analysis based on prior tumor xenograft studies. For our 80% power analysis, the difference between means was 200 mm^3, standard deviation was 100 mm^3, and P-value<0.05 (P<0.05). Tumors were measured at least twice weekly until their volume was >1000 mm^3, at which point animals were euthanized. Tumor size data were collected from each tumor, with the exception of one tumor in the combination treatment experiment that was identified with 90% confidence via Grubb's Outlier Test. The following number of mice in each treatment cohort was evaluated for tumor outgrowth: (Scr siRNA/ctrl., N=15; Hrnr siRNA/ctrl., N=14; Scr siRNA/AV-951, N=8; Hrnr siRNA/AV-951, N=8).
For tumor implantation, L3.6pl cells were grown under normal culture conditions for 72 hours prior to being trypsinized and enumerated. The cells were suspended in aliquots of 500,000 cells/50 μL Hanks Balanced Salt Solution (HBSS; Corning, Manassas, VA, USA) and 50 μL of Matrigel (BD Biosciences, San Jose, CA, USA) was added to each aliquot of cells prior to implantation. The cell-Matrigel slurry was injected subcutaneously into nu/nu mice on the flanks or orthotopically into the pancreas (Seaman et al., 2011). The injection site for subcutaneous tumors was monitored daily for growth and tumor volume was calculated form caliper measurements using the formula (width^2×length)/2.
The VEGFR inhibitor AV-951 (Selleck Chemicals, Houston, TX, USA) was suspended in 0.5% methocel+0.5% Tween-20 in HBSS to increase viscosity and 50 μL of 1.0 mg/kg AV-951 or VC solution was administered once daily by oral gavage (22-gauge gavage needle (Kent Scientific, Torrington, CT, USA) connected to a 1 mL syringe). […] To prepare Hrnr siRNA and Silencer Select Negative Control #1 Scr siRNA (Invitrogen; catalog number 4390844) for injection, 10 μg of hornerin or control siRNA were combined with in vivo-jetPEI transfection reagent (Polyplus, France) in solution with 5% glucose per Polyplus instructions (total volume 50 μL). After a 30 minutes incubation, the siRNA solutions were injected slowly into the center of the tumor. A second independent hornerin knockdown experiment was conducted using a pooled set of three unique mouse Hrnr siRNA duplexes (5′-[…]-3′ (SEQ ID NO: 50); 5 ‘-[…]-3’ (SEQ ID NO: 51); 5 ‘-[…]-3’ (SEQ ID NO: 52)) and Scr siRNA (Origene, Rockville, MD, USA). The reagent preparation and injection protocol were similar to that described above.

hornerin transcript = assay: qPCR of hornerin transcript in FACS-sorted CD31+CD45- tumor endothelial cells; assay type: in vivo, mouse; details: vs Scr siRNA, 20 hours after injection
Method: Day 10 tumors were injected with either Scr siRNA or Hrnr siRNA and excised 20 hours later. The tumors were immediately washed in PBS (+Mg/+Ca), minced with scalpels, treated with Collagenase Type II (Worthington Biochemical Corporation, Lakewood, NJ, USA; (2.0 mg/mL) serum-free DMEM, 100 minutes at 37° C.), and filtered through a 40 μm cell strainer. The cell suspension (filtrate) was incubated with the following antibody/dye panel for FACS; anti-CD45 AF488 (1:100; Biolegend, San Diego, CA, USA, 103121, clone 30-F11), anti-CD31 AF647 (1:100; Biolegend, 102415, clone 390), LIVE/DEAD violet stain (1:200; Thermo Fisher). Flow cytometry analysis was completed on the Cyan ADP LX (Beckman Coulter). Compensation and data analysis was completed using FlowJo software (Ashland, OR, USA). […]
RNA was isolated from FACS-sorted CD31^+CD45^− cells according to the manufacturer's protocol (Qiagen mini-prep kit), and concentration and purity were determined using a NanoDrop Spectrophotometer (Thermo Fisher). Complimentary DNA (cDNA) was generated (Qiagen QuantiTect Reverse Transcription Kit) and subjected to pre-amplification (SsoAdvanced PreAmp Supermix, Bio-Rad). […] Melt curve analysis was performed on the hornerin and cyclophilin primer sets prior to data collection and normalized gene expression was determined by the delta delta Ct method.

For “5′-GCAUGGAUCUUGUUGCGGUTT-3′ [Hrnr siRNA]”, the “reduction in hornerin expression (knockdown) relative to Scr siRNA” value (murine Hrnr) was 60%, the “cleaved caspase 3 levels in tumors relative to control” value (L3.6pl tumors) was “two-fold increase” and the “tumors smaller compared to Scr siRNA-injected tumors” value (L3.6pl PDAC cells; intratumoral injection every other day from day 7, volume at day 13 post implantation) was 2.5 fold. The “reduction in tumor volume (discussion summary)” value (L3.6pl PDAC cells; monotherapy or combined therapies) was “two-fold” and the “reduction in hornerin transcript” value (hornerin transcript) was 78%.

From patent publication US12059429B2, “Hornerin: a novel non-VEGF mediated angiogenic protein expressed in both human and mouse angiogenic endothelial cells and human pancreatic cancer cells” (University of Virginia Patent Foundation, priority 2018, dated 2024)
